Reference: paper PMC12362585, “Development and Preclinical Characterization of [^18F]H3-2406 and [^18F]H3-2407 for Positron Emission Tomography Imaging of the Histamine Subtype‑3 Receptor” (Journal of Medicinal Chemistry, 2025)
pKi: −log10 of the molar value.

Assays:
[1] = Ex vivo radiometabolite analysis in brain and plasma; details: CD1 mice, 30 min postinjection
Procedure: Next, ex vivo stability in the brain and plasma of CD1 mice was analyzed by radio-HPLC (Figure ). At 30 min postinjection, the parent fraction of [^18F]3 in the brain was determined to be 96%, indicating excellent in vivo metabolic stability. In the blood, 31% of the radioactivity remained intact.
A dose of 15 MBq of [^18F]3 in 0.1 mL saline was intravenously injected into the tail vein of CD1 mice (5–6 weeks). The mice were sacrificed at 30 min postinjection, and the mice brain and blood were quickly collected and homogenized with cold acetonitrile. […] The radioactivity for each fraction was measured using a γ counter (PerkinElmer Wizard). Data analysis was performed by GraphPad Prism 8.0, and the percentage of [^18F]3 relative to total radioactivity (corrected for decay) was calculated as (peak area for [^18F]3 /total peak area) × 100%.

H3R [2] = biological target: T1, H3R (Mus musculus, UniProt P58406); assay: Dynamic PET imaging in CD1 mice, baseline and H3R antagonist blocking; format: in vivo; details: for V T, cerebellum / V T, cortex / V T, hippocampus / V T, striatum / V T, thalamus / V T, whole brain: Logan analysis, IDIF
T1 construct: dynamic PET imaging studies were conducted in CD1 mice; from tissue; host or cells: brain of living CD1 mice
T1 sequence (P58406 whole entry): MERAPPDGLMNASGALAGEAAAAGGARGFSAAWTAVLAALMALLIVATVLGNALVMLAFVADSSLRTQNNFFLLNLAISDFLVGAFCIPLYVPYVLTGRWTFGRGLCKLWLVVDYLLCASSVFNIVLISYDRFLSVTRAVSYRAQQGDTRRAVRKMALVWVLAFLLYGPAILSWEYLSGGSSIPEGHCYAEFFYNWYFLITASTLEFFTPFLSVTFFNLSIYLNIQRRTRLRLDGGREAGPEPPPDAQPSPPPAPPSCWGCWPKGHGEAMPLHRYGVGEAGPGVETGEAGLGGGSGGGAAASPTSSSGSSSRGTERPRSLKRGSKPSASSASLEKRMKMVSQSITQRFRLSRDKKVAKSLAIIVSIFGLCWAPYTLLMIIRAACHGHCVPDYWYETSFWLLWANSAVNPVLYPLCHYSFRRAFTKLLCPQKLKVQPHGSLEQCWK
Procedure: To elucidate the in vivo brain uptake of [^18F]3 and [^18F]4, dynamic PET imaging studies were conducted in CD1 mice (an outbred strain of immunocompetent mice commonly used for pharmacokinetic and biodistribution studies) for 60 min. The results, which include summed PET images (0–60 min), whole-brain time-activity curves (TACs), and area under the curve (AUC) for both radioligands, are depicted in Figures and . At baseline, [^18F]3 rapidly crossed the BBB following intravenous injection, reaching peak whole-brain uptake with a standardized uptake value (SUV) value of 2.4 at 2.3 min. This was followed by a gradual washout and reached a SUV of 1.87 by 60 min. To evaluate the binding characteristics of [^18F]3, elective H3R antagonists with distinct structural scaffolds, GSK189254, enerisant, and cipralisant, were used as blocking agents. […] Quantification of specific tracer binding was performed using volume of distribution (V T) values, derived from compartmental modeling and an image-derived input function (IDIF). […] While these findings support the utility of [^18F]3 for in vivo studies, we acknowledge the inherent limitations of IDIF, including the lack of metabolite correction and potential inaccuracies in capturing early phase kinetics.
PET imaging was conducted following previously reported methods. CD1 mice (5–6 weeks) were anesthetized with 1.5% (v/v) isoflurane during the scan. A dose of 3.0 MBq of [^18F]3 or [^18F]4 was intravenously injected into the tail vein, and a dynamic scan was acquiring using a PET scanner (MOLECUBES, beta-cube) for 60 min. In the blocking studies, GSK189254 (3 mg/kg) in 0.1 mL of saline containing 5% ethanol and 5% Tween-80 was preinjected for 10 min prior to the injection of PET radioligands. The results were reconstructed and analyzed by PMOD 4.3 software.
Quantification of specific tracer binding was performed using volume of distribution (VT) values, derived from compartmental modeling and an image-derived input […]
significant reduction in H3R-rich brain regions such as the cortex and striatum under blocking conditions with GSK189254, enerisant, and cipralisant, confirming the specificity of [18F]3 binding (Table S1).
Table S1. Estimation of V T values by Logan analysis in mice with [ 18F]3 at baseline, GSK189254-blocking (3 mg/kg), enerisant-blocking (3 mg/kg), and cipralisant-blocking (3 mg/kg) conditions.
Group Baseline GSK189254 Enerisant Cipralisant blocking blocking blocking

[3] = Log D by shake-flask method; format: physicochemical; details: n-octanol/PBS
Procedure: To evaluate the binding affinities of compounds 1–9, competitive radioligand binding assays were conducted using [^3H]-AZ13582963 [4-(1S,2S)-2-(4-cyclobutylpiperazine-1-carbonyl)-cyclopropyl)-N-methyl-[2-^3 H]-benzamide]. […]. […]. Further, ACD Percepta predictions indicated these compounds are likely to cross the blood-brain barrier (BBB), as indicated by a log BB > −1 and a multiparameter optimization (MPO) score >4.0. High selectivity toward H3R over other CNS targets is essential for effective H3R PET imaging. Therefore, off-target screenings of compounds 2, 3, and 4 were conducted against various CNS receptors, G protein-coupled receptors (GPCRs), transporters, and ion channels at 10 μM (Figure S1). […]. Sigma-1 receptors, crucial for ion channel function and associated with learning, memory, and pain, , have shown synergy with H3R antagonists, including PF-03654746 and ABT-239, potentially enhancing in vivo efficacy.
The lipophilicity was measured according to previously reported methods. , In brief, PBS and n-octanol were premixed prior to the experiment. A solution containing 0.2 MBq of [^18F]3 or [^18F]4, PBS (3 mL) and n-octanol (3 mL) were prepared in a vial and vortexed for 5 min. The PBS and n-octanol layers were then separated and transferred into a centrifuge tube, followed centrifugation at 12,000 rpm for 5 min. Then PBS (0.5 mL) and n-octanol (0.05 mL) were weight and measured the radioactivity on a γ counter (PerkinElmer Wizard). The Log D values of [ ^18F]3 and [^18F]4 were calculated using the following formula: LogD=Log[(radioactivityn‐octanol/weightn‐octanol)/(radioactivityPBS/weightPBS)]

sigma-1 receptor = sigma-1 receptor (Homo sapiens, UniProt Q99720); assay: sigma 1 binding assay; details: ratio of sigma-1 K i to H3R K i
Chain of sigma-1 receptor (Q99720 whole entry, species assumed): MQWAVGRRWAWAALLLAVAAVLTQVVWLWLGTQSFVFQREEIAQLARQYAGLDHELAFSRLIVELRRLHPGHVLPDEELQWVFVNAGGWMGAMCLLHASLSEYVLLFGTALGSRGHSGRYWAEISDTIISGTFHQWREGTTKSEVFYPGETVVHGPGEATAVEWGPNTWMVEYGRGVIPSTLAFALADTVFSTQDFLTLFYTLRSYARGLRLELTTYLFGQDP

H3R [4] = biological target: T2, H3R (Homo sapiens, UniProt Q9Y5N1); assay: H3R competitive radioligand binding assay using [^3H]AZ13582963; details: competitive binding vs [^3H]AZ13582963; read-out: H3R K i
T2 construct: Gifford Bioscience (contract laboratory that ran the assay)
T2 sequence (Q9Y5N1 whole entry, species assumed): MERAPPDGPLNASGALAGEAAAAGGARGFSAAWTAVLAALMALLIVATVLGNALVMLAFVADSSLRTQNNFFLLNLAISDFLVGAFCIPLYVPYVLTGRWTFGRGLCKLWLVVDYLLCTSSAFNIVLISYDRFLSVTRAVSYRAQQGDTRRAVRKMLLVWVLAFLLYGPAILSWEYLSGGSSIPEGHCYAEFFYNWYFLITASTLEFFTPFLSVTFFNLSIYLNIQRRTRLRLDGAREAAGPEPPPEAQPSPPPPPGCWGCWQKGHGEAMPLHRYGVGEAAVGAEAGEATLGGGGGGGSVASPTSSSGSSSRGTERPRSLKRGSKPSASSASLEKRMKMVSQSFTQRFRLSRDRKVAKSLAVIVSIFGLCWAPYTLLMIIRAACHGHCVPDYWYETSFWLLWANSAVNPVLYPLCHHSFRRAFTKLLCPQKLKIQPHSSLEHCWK

[5] = mice pretreated with GSK189254 (3 mg/kg)

Structure (SMILES): O=C([C@H]1C[C@@H]1c1ccc([18F])cc1)N1CCN(C2CCCC2)CC1 [[^18F]3]
- parent fraction in the brain [1]: 96%
- whole-brain signal reduction based on AUC, GSK189254 blocking (H3R [2]; GSK189254 3 mg/kg, 0–60 min): 32.5%
- V T, cerebellum (H3R [2]; GSK189254 blocking 3 mg/kg): 3.85 ± 0.61
- V T, cortex (H3R [2]; GSK189254 blocking 3 mg/kg): 2.17 ± 0.08
- V T, hippocampus (H3R [2]; GSK189254 blocking 3 mg/kg): 3.77 ± 0.47
- V T, striatum (H3R [2]; GSK189254 blocking 3 mg/kg): 2.91 ± 0.05
- V T, thalamus (H3R [2]; GSK189254 blocking 3 mg/kg): 3.90 ± 0.90
- V T, whole brain (H3R [2]; GSK189254 blocking 3 mg/kg): 3.40 ± 0.44
- V T, cerebellum (H3R [2]; baseline): 5.59 ± 0.37
- V T, cortex (H3R [2]; baseline): 4.82 ± 0.09
- V T, hippocampus (H3R [2]; baseline): 5.80 ± 0.05
- V T, striatum (H3R [2]; baseline): 5.64 ± 0.02
- V T, thalamus (H3R [2]; baseline): 6.71 ± 0.05
- V T, whole brain (H3R [2]; baseline): 5.29 ± 0.52
- V T, cerebellum (H3R [2]; cipralisant blocking 3 mg/kg): 2.94 ± 0.33
- V T, cortex (H3R [2]; cipralisant blocking 3 mg/kg): 2.38 ± 0.34
- V T, hippocampus (H3R [2]; cipralisant blocking 3 mg/kg): 2.61 ± 0.32
- V T, striatum (H3R [2]; cipralisant blocking 3 mg/kg): 2.67 ± 0.33
- V T, thalamus (H3R [2]; cipralisant blocking 3 mg/kg): 2.78 ± 0.40
- V T, whole brain (H3R [2]; cipralisant blocking 3 mg/kg): 2.61 ± 0.30
- V T, cerebellum (H3R [2]; enerisant blocking 3 mg/kg): 3.73 ± 0.16
- V T, cortex (H3R [2]; enerisant blocking 3 mg/kg): 3.18 ± 0.12
- V T, hippocampus (H3R [2]; enerisant blocking 3 mg/kg): 3.84 ± 0.19
- V T, striatum (H3R [2]; enerisant blocking 3 mg/kg): 3.48 ± 0.27
- V T, thalamus (H3R [2]; enerisant blocking 3 mg/kg): 4.11 ± 0.26
- V T, whole brain (H3R [2]; enerisant blocking 3 mg/kg): 3.58 ± 0.18
- time of peak whole-brain uptake (H3R [2]; baseline, CD1 mice): 2.3 min
- whole-brain uptake at 60 min (H3R [2]; baseline, CD1 mice): 1.87 SUV
- peak whole-brain uptake (H3R [2]; baseline, intravenous injection, CD1 mice): 2.4 SUV
- whole-brain AUC reduction, cipralisant blocking (H3R [2]; cipralisant 3 mg/kg, 0–60 min): 38.4%
- whole-brain AUC reduction, enerisant blocking (H3R [2]; enerisant 3 mg/kg, 0–60 min): 35.6%
- brain radioactivity at 60 min (H3R [2]; [5]): 1.27 SUV
- peak brain radioactivity (H3R [2]; [5]): 1.98 SUV
- time of peak brain radioactivity (H3R [2]; [5]): 1.9 min
- logD [3]: 2.82
- selectivity of H3R over sigma-1 (sigma-1 receptor): 69 fold
- pKi (H3R [4]): 8.54
